From patent US20250388605A1, “HETEROBIFUNCTIONAL COMPOUNDS AND METHODS OF TREATING DISEASE” (Halda Therapeutics OpCo, Inc., priority 2022, published 2025)

How the values were obtained:
VCaP cells = experiment: Cellular growth inhibition assay for VCaP cells, CellTiter-Glo; type: cell-based, human; details: 72 hours
Procedure, shortened: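 GI50 values come from four-parameter curve fits of luminescence data normalized to a zero baseline. Compound, in medium with 0.5% DMSO, was added one day after plating and left for 72 h before CellTiter-Glo 2.0 addition.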

[1] = tested on: T-Rex 293 cell line SC3 cells lacking increased expression of androgen receptor protein; experiment: Cellular growth inhibition, T-Rex 293 SC3 cells without doxycycline (no increased androgen receptor expression), CellTiter-Glo; type: cell-based; details: T-Rex 293 SC3 cells not exposed to doxycycline (no increased androgen receptor expression), 72 hours
Procedure, shortened: (§1)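 Growth inhibition is measured in an inducible AR-expressing T-Rex 293 clone, SC3, cultured with or without 10 ng/mL doxycycline in hormone-depleted medium. Test compounds are applied for 72 hours. GI50 values derive from CellTiter-Glo 2.0 signal fitted by four-parameter regression.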

T47D cells = experiment: Cellular Growth Inhibition Assay for T47D Cells (CellTiter-Glo); type: cell-based, human; details: 72 hours
Procedure, shortened: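 GI50 values derive from four-parameter regression of CellTiter-Glo 2.0 luminescence, using zero luminescence as baseline. Human breast cancer T47D cells (3000/well; DMEM, 10% FBS, 0.2 units/mL insulin) were exposed for 72 h to compound dilutions at 0.5% DMSO, with dosing starting 24 h after seeding.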

[2] = tested on: T-Rex 293 cell line SC3 cells having increased expression of androgen receptor protein due to exposure to doxycycline; experiment: Cellular growth inhibition, T-Rex 293 SC3 cells with doxycycline (increased androgen receptor expression), CellTiter-Glo; type: cell-based; details: T-Rex 293 SC3 cells with 10 ng/mL doxycycline (increased androgen receptor expression), 72 hours, CellTiter-Glo 2.0
Procedure, shortened: as §1

GI50 (VCaP cells) [nM]	GI50 (T47D cells) [nM]	GI50 (VCaP cells; Homo sapiens) [nM]	GI50 (T47D cells; Homo sapiens) [nM]	SMILES	GI50 [1] [nM]	GI50 [2] [nM]
< 500	500 to 1500	–	–	Cn1cc(-c2cc(C(C)(C)O)ccc2Oc2cccc(OC3CCC4(CC3)CCN(c3ncc(C(=O)N[C@H]5C(C)(C)[C@H](Oc6ccc(C#N)c(Cl)c6)C5(C)C)cn3)CC4)c2)c2cc[nH]c2c1=O [Compound I-314]	> 3000	< 500
–	–	< 500	500 to 1500	Cn1cc(-c2cc(C(C)(C)O)ccc2Oc2ccc(N3CC(CC4CN(c5ccc(C(=O)N[C@H]6C(C)(C)[C@H](Oc7ccc(C#N)c(Cl)c7)C6(C)C)cn5)C4)C3)cc2)c2cc[nH]c2c1=O [Compound I-316]	< 500	< 500
< 500	< 500	–	–	Cn1cc(-c2cc(C(C)(C)O)ccc2Oc2cccc(OC3CC4(C3)CN(c3ncc(C(=O)N[C@H]5C(C)(C)[C@H](Oc6ccc(C#N)c(Cl)c6)C5(C)C)cn3)C4)c2)c2cc[nH]c2c1=O [Compound I-320]	< 500	< 500
–	–	< 500	< 500	Cn1cc(-c2cc(C(C)(C)O)ccc2Oc2ccc(N3CC(CC4CN(c5cnc(C(=O)N[C@H]6C(C)(C)[C@H](Oc7ccc(C#N)c(Cl)c7)C6(C)C)nc5)C4)C3)cc2)c2cc[nH]c2c1=O [Compound I-323]	500 to 1500	500 to 1500
> 3000	< 500	–	–	Cn1cc(-c2cc(C(C)(C)O)ccc2Oc2cccc(N3CCC(CC4CCN(c5ncc(C(=O)N[C@H]6C(C)(C)[C@H](Oc7ccc(C#N)c(Cl)c7)C6(C)C)cn5)CC4)CC3)c2)c2cc[nH]c2c1=O [Compound I-325]	> 3000	< 500
–	–	< 500	< 500	Cn1cc(-c2cc(C(C)(C)O)ccc2Oc2ccc(OC3CCN(C4CCN(c5ncc(C(=O)N[C@H]6C(C)(C)[C@H](Oc7ccc(C#N)c(Cl)c7)C6(C)C)cn5)CC4)CC3)cc2)c2cc[nH]c2c1=O [Compound I-328]	< 500	< 500

Continued, compound first:

SMILES	GI50 (VCaP cells) [nM]	GI50 (T47D cells) [nM]	GI50 (VCaP cells; Homo sapiens) [nM]	GI50 (T47D cells; Homo sapiens) [nM]	GI50 [1] [nM]	GI50 [2] [nM]
Cn1cc(-c2cc(C(C)(C)O)ccc2Oc2ccc(CCOC3CCN(c4ncc(C(=O)N[C@H]5C(C)(C)[C@H](Oc6ccc(C#N)c(Cl)c6)C5(C)C)cn4)CC3)cn2)c2cc[nH]c2c1=O [Compound I-315]	–	–	< 500	500 to 1500	> 3000	< 500
Cn1cc(-c2cc(C(C)(C)O)ccc2Oc2cccc(CC3CCC4(CC3)CCN(c3ncc(C(=O)N[C@H]5C(C)(C)[C@H](Oc6ccc(C#N)c(Cl)c6)C5(C)C)cn3)CC4)c2)c2cc[nH]c2c1=O [Compound I-318]	> 3000	< 500	–	–	> 3000	< 500
Cn1cc(-c2cc(C(C)(C)O)ccc2Oc2ccc(N3CC(CC4CN(c5ccc(C(=O)N[C@H]6C(C)(C)[C@H](Oc7ccc(C#N)c(Cl)c7)C6(C)C)nn5)C4)C3)cc2)c2cc[nH]c2c1=O [Compound I-319]	–	–	< 500	< 500	< 500	< 500
Cn1cc(-c2cc(C(C)(C)O)ccc2Oc2cccc(CC3CC4(C3)CN(c3ncc(C(=O)N[C@H]5C(C)(C)[C@H](Oc6ccc(C#N)c(Cl)c6)C5(C)C)cn3)C4)c2)c2cc[nH]c2c1=O [Compound I-321]	< 500	< 500	–	–	< 500	< 500
Cn1cc(-c2cc(C(C)(C)O)ccc2Oc2ccc(OC3CC4(C3)CC3(CCN(c5ncc(C(=O)N[C@H]6C(C)(C)[C@H](Oc7ccc(C#N)c(Cl)c7)C6(C)C)cn5)CC3)C4)cc2)c2cc[nH]c2c1=O [Compound I-326]	–	–	< 500	< 500	> 3000	< 500
Cn1cc(-c2cc(C(C)(C)O)ccc2Oc2ccc(CN3CC4(C3)CN(c3ncc(C(=O)N[C@H]5C(C)(C)[C@H](Oc6ccc(C#N)c(Cl)c6)C5(C)C)cn3)C4)cc2)c2cc[nH]c2c1=O [Compound I-327]	–	–	< 500	< 500	< 500	< 500
